Test results published in US12551418B2, “Cosmetic containing ultraviolet wavelength converting substance and medicinal agent” (Shiseido Company, Ltd., priority 2019, dated 2026).

Legend:
Human dermal fibroblasts [1] = experiment: Restoration of cell activity decreased by UV irradiation (Example 3); assay type: cell-based; conditions: cells pre-irradiated 400 mJ/cm^2 without substance, then UV 0-200 mJ/cm^2 through 0.4% or 2% C-phycocyanin
Protocol: (§1) A cell sample was prepared as follows: • 1. Human dermal fibroblasts and human skin keratinocytes purchased from Kurabo Industries Ltd. were used. A cell suspension (1 mL) stored in liquid nitrogen was thawed in a water bath (37° C.) to an extent that small ice pellets remained, and then diluted with 9 mL of warm medium. • 2. The diluted suspension was mixed gently and then transferred to a T75 flask and incubated overnight at 37° C. • 3. The next day, the medium was replaced with 10 mL of fresh medium. • 4. The medium was replaced periodically (once every 2 days for fibroblasts and once every 2 to 3 days for keratinocytes) and cell proliferation was continued. Meanwhile, the cells were observed using a microscope, and it was confirmed that the cells grew in the correct form. • 5. After the cells reached about 80% confluence, the cells were passaged. The cells were passaged by washing the cells once with 10 mL of warm PBS, adding 5 mL of warm trypsin to a T75 flask, covering the bottom of the flask with a trypsin solution, followed by aspirating at room temperature for 1 minute. • 6. The flask was allowed to stand in an oven at 37° C. for (maximum) 2 minutes for fibroblasts and (maximum) 7 minutes for keratinocytes. The cells were observed using a microscope and confirmed to be small and oval. • 7. Thereafter, the side of the T75 flask was lightly tapped to release the cells. […]

Human dermal fibroblasts [2] = experiment: Influence of C-phycocyanin concentration and UV intensity on cell activity (Example 2); assay type: cell-based; conditions: UV 0-100 mJ/cm^2
Protocol: as §1

C-phycocyanin
cell activity (relative fluorescence intensity, AlamarBlue) (Human dermal fibroblasts [1]): cell activity was recovered
cell activity (relative fluorescence intensity, AlamarBlue) (Human dermal fibroblasts [2]; 0.4% C-phycocyanin solution plate): the decrease in cell activity was inhibited
cell activity (relative fluorescence intensity, AlamarBlue) (Human dermal fibroblasts [2]; 2% C-phycocyanin solution plate, compared to no UV irradiation): the cell activity was even enhanced
